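Each compound was tested at five concentrations against cells in 96-well plates for 48 hours. At the TGI there is no net growth.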 Where only a bound is given, the exact number is not on record here.

Among the test systems are KM12 colon; SK-MEL-28 melanoma; OVCAR-3 ovarian; SF-295 CNS; COLO 205 colon; OVCAR-4 ovarian; SNB-19 CNS; OVCAR-8 ovarian; SR leukemia; TK-10 renal.
Common to all, as to test: NCI-60 cell line screen, 48 h

With `CC1=NN(C(=O)c2ccccc2)C(=O)C1N=Nc1ccccc1C(=O)O` (centres undefined), the TGI in the assay with KM12 colon was greater than 100 µM; in the assay with SK-MEL-28 melanoma, greater than 100 µM; in the assay with OVCAR-3 ovarian, greater than 27.5 µM; in the assay with SF-295 CNS it was greater than 100 µM; in the assay with COLO 205 colon, greater than 100 µM; with OVCAR-4 ovarian, greater than 55 µM. Moreover, the TGI in the assay with SNB-19 CNS and in the assay on OVCAR-8 ovarian was greater than 100 µM each time.

As to `COc1ccc(CCNC(=S)/N=C\C2=C(O)c3ccccc3C2=O)cc1OC`, the TGI is greater than 100 µM with KM12 colon; greater than 100 µM in the assay with SK-MEL-28 melanoma; 0.746 µM with OVCAR-3 ovarian; greater than 100 µM with SF-295 CNS; greater than 100 µM with COLO 205 colon; greater than 100 µM in the assay on OVCAR-4 ovarian. Besides, the TGI in the assay with SR leukemia, with SNB-19 CNS and with OVCAR-8 ovarian was greater than 100 µM throughout.

In the case of `CC(C)(CO)NC(=O)c1cccc(C(=O)NC(C)(C)CO)c1Br`, the TGI in the assay with KM12 colon, in the assay on SK-MEL-28 melanoma, in the assay on TK-10 renal, in the assay with COLO 205 colon, in the assay with OVCAR-4 ovarian and in the assay on SR leukemia was greater than 100 µM throughout. For the same molecule, the TGI with SNB-19 CNS and with OVCAR-8 ovarian was greater than 100 µM throughout.

Turning to `O=C(/C=C/c1ccsc1)c1ccc(Cl)s1`, the TGI with KM12 colon was 35.9 µM; in the assay on SK-MEL-28 melanoma, greater than 100 µM; in the assay with TK-10 renal, greater than 100 µM; in the assay with SF-295 CNS, greater than 100 µM; in the assay with COLO 205 colon, greater than 100 µM; with OVCAR-4 ovarian, greater than 100 µM. In addition, the TGI in the assay on SR leukemia is 54 µM; with SNB-19 CNS, greater than 100 µM; in the assay on OVCAR-8 ovarian, greater than 100 µM.

In the case of `CCOC(=O)CC(=Nc1cc(C)on1)N(CC)CC`, the TGI in the assay on KM12 colon, in the assay on SK-MEL-28 melanoma, in the assay with OVCAR-3 ovarian, in the assay with TK-10 renal, with COLO 205 colon and in the assay with SR leukemia was greater than 100 µM in each case. In addition, the TGI in the assay on SNB-19 CNS and in the assay with OVCAR-8 ovarian was greater than 100 µM each time.

For `CC(=O)O[C@H]1CC[C@H]2[C@@H]3CC[C@H]4Nc5c(cnn5S(C)(=O)=O)C[C@]4(C)[C@H]3CC[C@]12C`, the TGI was greater than 100 µM with KM12 colon; greater than 100 µM with SK-MEL-28 melanoma; 78.1 µM in the assay on OVCAR-3 ovarian; greater than 100 µM with SF-295 CNS; greater than 100 µM with COLO 205 colon; greater than 100 µM in the assay with OVCAR-4 ovarian. Besides, the TGI in the assay with SR leukemia, with SNB-19 CNS and in the assay on OVCAR-8 ovarian was greater than 100 µM in each case.

`CCCCCCCCC[C@@H]1C[C@@H]2CCC3C(C(=O)OCCCCNC(=O)OCc4ccccc4)=C(C)NC(=N1)N32` (some centres undefined): the TGI is 13.7 µM in the assay on KM12 colon; 13.5 µM in the assay with SK-MEL-28 melanoma; 14.9 µM in the assay with OVCAR-3 ovarian; 17.7 µM in the assay with TK-10 renal; 11.2 µM in the assay with SF-295 CNS; 2.97 µM in the assay on COLO 205 colon. The values for the TGI in the assay with OVCAR-4 ovarian, in the assay on SNB-19 CNS and in the assay on OVCAR-8 ovarian were 21.3 µM, 29.4 µM and 8.7 µM, respectively.

Turning to `O=S(=O)(Nc1nc(-c2cc(O)c(O)c(O)c2)cs1)c1ccc(Cl)cc1Cl`, the TGI in the assay on KM12 colon is 31.1 µM; with SK-MEL-28 melanoma, greater than 100 µM; with OVCAR-3 ovarian it was 37.6 µM; with TK-10 renal, 36.2 µM; in the assay on SF-295 CNS it was 34.4 µM; in the assay with COLO 205 colon it was 50.2 µM. Also, the TGI with OVCAR-4 ovarian is 47.9 µM; in the assay on SNB-19 CNS it was greater than 100 µM; in the assay with OVCAR-8 ovarian, 14.9 µM.

Regarding `CCCCCCCCCCOC1C(C(C)OCCCN(C)C)OC2OC3(CCCCC3)OC21` (centres undefined), the TGI in the assay with SK-MEL-28 melanoma was 25.5 µM; with OVCAR-3 ovarian, 29.1 µM; in the assay with TK-10 renal it was 38.6 µM; in the assay with SF-295 CNS, 32.7 µM; with COLO 205 colon, 14.6 µM; in the assay on OVCAR-4 ovarian it was 27.5 µM. In addition, the TGI in the assay on SNB-19 CNS turned out to be 25.5 µM; in the assay with OVCAR-8 ovarian, 34.6 µM.

On to `Cc1cc(O)c(/C=N/C(=O)NN)c(=O)o1`, for which the TGI in the assay with KM12 colon, with SK-MEL-28 melanoma, in the assay with OVCAR-3 ovarian, in the assay with TK-10 renal, in the assay with SF-295 CNS and in the assay on COLO 205 colon was greater than 100 µM in each case. Also, the TGI in the assay on OVCAR-4 ovarian, in the assay on SNB-19 CNS and in the assay on OVCAR-8 ovarian was greater than 100 µM in each case.

Take `COc1ccc2c(c1)Cc1c-2[nH]c2cc3c(cc2c1=O)OCO3`: the TGI was found to be 38.3 µM with KM12 colon; 53.8 µM in the assay on SK-MEL-28 melanoma; 45.9 µM in the assay with OVCAR-3 ovarian; 83.3 µM in the assay on TK-10 renal; 51.7 µM in the assay on SF-295 CNS; 25.5 µM in the assay on COLO 205 colon. Further, the TGI in the assay with OVCAR-4 ovarian, in the assay on SNB-19 CNS and in the assay on OVCAR-8 ovarian was greater than 100 µM in each case.

Regarding `COC(=O)C[C@](O)(CCC(C)(C)O)C(=O)O[C@@H]1C(OC)=C[C@]23CCCN2CCc2cc4c(cc2[C@H]13)OCO4`, the TGI with KM12 colon is 1.21 µM; in the assay with SK-MEL-28 melanoma it was 0.294 µM; in the assay with OVCAR-3 ovarian, 0.459 µM; in the assay on SF-295 CNS, 0.61 µM; in the assay with COLO 205 colon, 0.255 µM; in the assay with OVCAR-4 ovarian it was 0.478 µM. For the same molecule, the TGI in the assay on SNB-19 CNS was determined as 0.28 µM; in the assay with OVCAR-8 ovarian it was 0.571 µM.

Take `CC1(C)C(C(=O)OC(C#N)c2cccc(OCC(=O)OCc3ccccc3)c2)C1(C)C` (centres undefined): the TGI in the assay on KM12 colon, in the assay on SK-MEL-28 melanoma, in the assay with OVCAR-3 ovarian, in the assay on TK-10 renal, in the assay with SF-295 CNS and in the assay on COLO 205 colon was greater than 100 µM in each case. Moreover, the TGI with OVCAR-4 ovarian, in the assay on SNB-19 CNS and with OVCAR-8 ovarian was greater than 100 µM in each case.

With `CN(C)C(=S)/N=c1\ssc(=S)n1Cc1ccccn1`, the TGI in the assay with KM12 colon was greater than 48 µM; with SK-MEL-28 melanoma, greater than 100 µM; in the assay with OVCAR-3 ovarian it was 11.3 µM; in the assay on TK-10 renal, greater than 100 µM; in the assay with SF-295 CNS, greater than 65.7 µM; with COLO 205 colon it was 21.4 µM. Besides, the TGI is greater than 52.3 µM with OVCAR-4 ovarian, greater than 100 µM with SNB-19 CNS and greater than 100 µM with OVCAR-8 ovarian.

`Cc1ccc(C(=O)NC(C)C)cc1N=NN(C)C`: the TGI in the assay with KM12 colon, with SK-MEL-28 melanoma, in the assay on OVCAR-3 ovarian, in the assay on TK-10 renal, in the assay on SF-295 CNS and with OVCAR-4 ovarian was greater than 100 µM in each case. The TGI in the assay on SNB-19 CNS and in the assay on OVCAR-8 ovarian was greater than 100 µM in each case.
